Data taken from article PMC5663094, “A seven-gene cluster in Ruminiclostridium cellulolyticum is essential for signalization, uptake and catabolism of the degradation products of cellulose hydrolysis” (Biotechnology for Biofuels, 2017).

Experiments:
rCuaD = target: T1, rCuaD (Ruminiclostridium cellulolyticum, UniProt B8I427); test: isothermal titration calorimetry; format: binding; conditions: 20 °C, 150 mM NaCl, 25 mM HEPES, pH 7.0
T1 construct: gene Ccel_2115; mature protein (lipoprotein signal peptide removed, putative cleavage at amino acid 20), N-terminal His6, pET22b(+), E. coli BL21(DE3)
Source text: isothermal titration calorimetry on rCuaD

rCuaA = target: T2, rCuaA (Ruminiclostridium cellulolyticum, UniProt B8I424); test: isothermal titration calorimetry; format: binding; conditions: 20 °C, 150 mM NaCl, 25 mM HEPES, pH 7.0
T2 construct: gene Ccel_2112; mature protein (lipoprotein signal peptide removed, putative cleavage at amino acid 22), N-terminal His6, pET22b(+), E. coli BL21(DE3)
Source text: isothermal titration calorimetry on rCuaA

T2 sequence (B8I424 entry or part of it): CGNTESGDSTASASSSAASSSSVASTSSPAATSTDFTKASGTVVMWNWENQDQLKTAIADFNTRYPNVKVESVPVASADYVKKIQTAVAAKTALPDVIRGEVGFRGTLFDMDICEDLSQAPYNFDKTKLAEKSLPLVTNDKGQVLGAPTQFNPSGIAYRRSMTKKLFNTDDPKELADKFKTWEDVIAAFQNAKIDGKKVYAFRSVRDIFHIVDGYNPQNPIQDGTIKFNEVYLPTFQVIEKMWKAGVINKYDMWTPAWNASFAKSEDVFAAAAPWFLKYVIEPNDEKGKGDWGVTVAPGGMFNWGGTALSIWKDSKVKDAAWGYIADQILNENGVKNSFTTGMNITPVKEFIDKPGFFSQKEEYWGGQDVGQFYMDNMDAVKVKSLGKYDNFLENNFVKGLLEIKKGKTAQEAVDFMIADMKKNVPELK
T1 sequence (B8I427 entry or part of it): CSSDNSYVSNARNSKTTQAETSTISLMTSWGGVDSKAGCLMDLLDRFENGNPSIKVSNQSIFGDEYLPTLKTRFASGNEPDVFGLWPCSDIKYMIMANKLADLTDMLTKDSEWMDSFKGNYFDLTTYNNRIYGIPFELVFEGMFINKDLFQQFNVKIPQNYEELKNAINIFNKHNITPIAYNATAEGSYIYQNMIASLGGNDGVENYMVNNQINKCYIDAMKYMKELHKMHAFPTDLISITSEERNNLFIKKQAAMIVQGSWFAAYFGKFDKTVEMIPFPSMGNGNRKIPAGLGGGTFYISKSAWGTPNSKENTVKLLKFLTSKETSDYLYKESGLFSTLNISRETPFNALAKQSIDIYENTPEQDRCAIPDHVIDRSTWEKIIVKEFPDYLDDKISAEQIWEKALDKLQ

Compound | Kd (rCuaD) [nM] | Kd (rCuaA) [nM]
OC[C@H]1O[C@@H](O[C@H]2[C@H](O)[C@@H](O)C(O)O[C@@H]2CO)[C@H](O)[C@@H](O)[C@@H]1O (some centres unmarked) [G2, cellobiose] | 23 ± 3 | 240 ± 20
OC[C@H]1O[C@@H](O[C@H]2[C@H](O)[C@@H](O)[C@H](O[C@H]3[C@H](O)[C@@H](O)C(O)O[C@@H]3CO)O[C@@H]2CO)[C@H](O)[C@@H](O)[C@@H]1O (some centres unmarked) [G3, cellotriose] | – | 405 ± 110
OC[C@H]1O[C@@H](O[C@H]2[C@H](O)[C@@H](O)[C@H](O[C@H]3[C@H](O)[C@@H](O)[C@H](O[C@H]4[C@H](O)[C@@H](O)C(O)O[C@@H]4CO)O[C@@H]3CO)O[C@@H]2CO)[C@H](O)[C@@H](O)[C@@H]1O (some centres unmarked) [G4, cellotetraose] | – | 644 ± 58
OC[C@H]1O[C@@H](O[C@H]2[C@H](O)[C@@H](O)[C@H](O[C@H]3[C@H](O)[C@@H](O)[C@H](O[C@H]4[C@H](O)[C@@H](O)[C@H](O[C@H]5[C@H](O)[C@@H](O)C(O)O[C@@H]5CO)O[C@@H]4CO)O[C@@H]3CO)O[C@@H]2CO)[C@H](O)[C@@H](O)[C@@H]1O (some centres unmarked) [G5, cellopentaose] | – | 1860 ± 130
